One molecule from US20230101743A1, “SUBSTITUTED TRIAZINE COMPOUNDS AND USES THEREOF” (MUSC FOUNDATION FOR RESEARCH DEVELOPMENT, priority 2020, published 2023) can be followed below.

The subject of the assay is APOB secretion in the culture medium of hepatic cells. The experiment in a line: Secreted APOB ELISA in hepatic cells (K3 and JD4 iPSC-derived hepatocytes, human primary hepatocytes, HepG2). It is filed as cell-based. The note with it: 2 μg/mL, 24 hours; compared to DMSO-treated cells. On the procedure: A. Human-induced pluripotent stem cells from a health donor (K3) and HoFH patient (JD4) were differentiated into hepatocytes via a defined protocol. Two different iPSC-derived Hepatocytes along with human primary hepatocytes and HepG2 cells were treated with 2 μg/mL of DL-1 for 24 hours and secreted APOB level were determined via human-specific APOB ELISA and were compared to DMSO-treated cells. […] Data shown as mean±SEM of triplicates (n=3); * p<0.05, *** P<0.001.
Human iPSCs were generated previously and have been described elsewhere (Si-Tayeb, 2010; Cayo et al., 2012). […]
Human APOB level was determined via a commercial sandwich ELISA (3715-1H-6; Mabtech), and the signal was detected using the HRP-TMB system. The concentration of APOB was determined using a standard curve with four parameters logistic regression model. Human APOA level was determined via a commercial sandwich ELISA (3710-1H-6; Mabtech) following manufacture instruction. Human albumin levels in cell culture supernatants were measured by commercial ELISA (E88-129; Bethyl Laboratories) following manufactural instructions.

With `Sc1nc(S)nc(Nc2ccc(Nc3ccccc3)cc2)n1` (racemic) [DL-1, 6-{[4-(phenylamino)phenyl]amino}-1,3,5-triazine-2,4-dithiol], the “secreted APOB level” value is given as “reduces APOB secretion”.
